Experimental data: the supplement of paper PMC13380429

Legend:
Details in all cases: 72 h
HepG2 [1] = assay: cell viability relative to DMSO; higher = less toxic
Calu-3 [2] = assay: as above
Vero E6 [3] = assay: as above
U2OS [4] = assay: as above
Caco-2 [5] = assay: as above
HepG2 [6] = assay: relative viability EC50 (midpoint between 100% and the lowest measured viability); higher = less toxic
Calu-3 [7] = assay: as above
Vero E6 [8] = assay: as above
U2OS [9] = assay: as above
Caco-2 [10] = assay: as above
HepG2 [11] = assay: drug sensitivity score (DSS) for viability; higher = more toxic; extreme values may be limits of the assay
Calu-3 [12] = assay: as above
Vero E6 [13] = assay: as above
U2OS [14] = assay: as above
Caco-2 [15] = assay: as above

Structure (SMILES)	cell viability (HepG2 [1]; 1 nM) [%]	cell viability (HepG2 [1]; 10 nM) [%]	cell viability (HepG2 [1]; 100 nM) [%]	cell viability (HepG2 [1]; 1000 nM) [%]	cell viability (HepG2 [1]; 10000 nM) [%]	cell viability (Calu-3 [2]; 1 nM) [%]	cell viability (Calu-3 [2]; 10 nM) [%]	cell viability (Calu-3 [2]; 100 nM) [%]	cell viability (Calu-3 [2]; 1000 nM) [%]	cell viability (Calu-3 [2]; 10000 nM) [%]	cell viability (Vero E6 [3]; 1 nM) [%]	cell viability (Vero E6 [3]; 10 nM) [%]	cell viability (Vero E6 [3]; 100 nM) [%]	cell viability (Vero E6 [3]; 1000 nM) [%]	cell viability (Vero E6 [3]; 10000 nM) [%]	cell viability (U2OS [4]; 1 nM) [%]	cell viability (U2OS [4]; 10 nM) [%]	cell viability (U2OS [4]; 100 nM) [%]	cell viability (U2OS [4]; 1000 nM) [%]	cell viability (U2OS [4]; 10000 nM) [%]	cell viability (Caco-2 [5]; 1 nM) [%]	cell viability (Caco-2 [5]; 10 nM) [%]	cell viability (Caco-2 [5]; 100 nM) [%]	cell viability (Caco-2 [5]; 1000 nM) [%]	cell viability (Caco-2 [5]; 10000 nM) [%]	relative viability EC50 (HepG2 [6]) [µM]	relative viability EC50 (Calu-3 [7]) [µM]	relative viability EC50 (Vero E6 [8]) [µM]	relative viability EC50 (U2OS [9]) [µM]	relative viability EC50 (Caco-2 [10]) [µM]	drug sensitivity score (HepG2 [11])	drug sensitivity score (Calu-3 [12])	drug sensitivity score (Vero E6 [13])	drug sensitivity score (U2OS [14])	drug sensitivity score (Caco-2 [15])
CC(C)(C)NS(=O)(=O)c1cncc(-c2cc(F)c3nc(N)nn3c2)c1	94.7	106	90.7	101	105	96.1	82.5	95.2	84.2	97.1	93.5	99.3	94	96.3	100	98.5	92.5	97.9	95.8	95.9	95.6	91.8	106	87.7	107	> 10	> 10	> 10	> 10	> 10	0	0	0	0	0
CC(C)(N)c1nc(-c2ccc(OC(F)(F)F)cc2)c[nH]1	96	107	101	117	104	107	102	90.1	105	113	95.9	97.7	94.6	94.9	107	98.2	94.1	96.5	95.6	95.4	95.8	96.5	91.3	92	88	> 10	> 10	> 10	> 10	> 10	0	0	0	0	0.1
CC(C)C1=C2[C@H]3CC[C@@H]4[C@@]5(C)CC[C@H](OC(=O)CC(C)(C)C(=O)O)C(C)(C)[C@@H]5CC[C@@]4(C)[C@]3(C)CC[C@@]2([C@@H](O)CN(CCN(C)C)Cc2ccc(Cl)cc2)CC1=O	96.7	105	100	99.6	95.4	95.7	91.8	106	104	105	102	106	106	99.5	105	95.3	97.8	94.3	94.9	94.2	96.3	98.7	97.7	100	97.2	> 10	> 10	> 10	> 10	> 10	0	0	0	0	0
CCC(CC)Nc1cc(C)nc(Oc2c(C)cc(C)cc2C)c1C	94.9	104	93.1	108	103	94.3	94.5	98.6	96.5	100	96.8	96.1	90.1	94.3	109	104	95.7	102	98.5	97	90.2	96.6	101	99.9	100	> 10	> 10	> 10	> 10	> 10	0	0	0	0	0
CCCCOc1c(C(=O)c2c(F)cc(C)cc2F)c[nH]c2nncc1-2	96.7	99.8	95.1	81.4	80.8	94.9	86.1	71.1	60.7	89.4	102	97.4	94.1	84.5	84.9	98	101	102	113	95.6	104	102	94	82.9	77.7	> 10	> 10	> 10	> 10	> 10	2.9	0	1.6	0	2.7
CCCCn1c(-c2ccccc2)nc(-c2ccccc2)c1CN(Cc1ccc2c(c1)OCO2)Cc1ccc2c(c1)OCO2	102	102	96.3	95.5	89.4	107	102	107	101	96.7	106	101	100	101	97.7	95.8	97.6	91.4	94	85.6	94.2	105	95.1	92.7	77.5	> 10	> 10	> 10	> 10	> 10	0	0	0	0.2	1.2
CN(C)c1cccc(-c2c3c(=O)n(-c4ccccc4Cl)[nH]c3cc(=O)n2C)c1	99.2	104	94.2	97.2	87.6	89.9	91.3	100	97.7	92.6	101	104	99.6	102	104	99.8	96.6	101	95.2	93.7	100	98.3	101	93.1	84.6	> 10	> 10	> 10	> 10	> 10	0	0	0	0	0.8
COC(=O)[C@H](Cc1ccc([N+](=O)[O-])cc1)NC(=O)c1cccc2ccccc12	102	97.1	105	101	107	101	95.8	92.8	100	109	94.4	96.7	90.8	87.4	101	94.2	99	96.6	99.5	100	99.8	98.7	99.4	95.6	89	> 10	> 10	> 10	> 10	> 10	0	0	0	0	0
COc1c(C)c(C(=O)c2ccc(N)c(C(=O)O)c2)n2ccccc12	100	108	101	93.4	119	96.6	102	96	98.2	103	99.9	98.7	99.4	100	106	99.9	99.2	96.9	98.9	90.4	89.7	88.7	87.1	100	106	> 10	> 10	> 10	> 10	> 10	0	0	0	0	0
COc1cc(N)c(Cl)cc1C(=O)CCC1CCN(CCNS(C)(=O)=O)CC1	100	100	98.2	89	95.5	99.6	92.6	88.3	99.1	95.9	99.7	101	100	93.9	98.3	92.6	101	94.2	99.2	92.6	95.1	97.3	95.5	92.3	92.3	> 10	> 10	> 10	> 10	> 10	0.3	0	0	0	0
COc1ccccc1CN[C@H]1CCCN[C@H]1c1ccccc1	94.2	103	91.1	99.6	94.2	93.7	93.6	93.7	104	98.7	101	103	98	105	92.1	99	94.6	96.2	93.1	97.4	107	92.7	109	98.9	104	> 10	> 10	> 10	> 10	> 10	0	0	0	0	0
Cc1nc2ccccc2c(-c2ccc3c4c(ccnc24)CCO3)c1[C@H](OC(C)(C)C)C(=O)O	103	84.3	95.2	94.4	87.1	88.3	102	85.5	109	105	111	99.3	102	101	95.2	97.6	97.2	99	101	99.1	109	98.1	110	113	113	> 10	> 10	> 10	> 10	> 10	0.1	0	0	0	0
Cn1ccc2cc(NC(=O)Nc3cccnc3)ccc21	91.5	102	92.3	95.8	97.2	108	97.6	98.1	94.9	98	105	102	103	97.7	103	105	98.8	101	97.1	100	100	97.9	88.7	84.5	95.8	> 10	> 10	> 10	> 10	> 10	0	0	0	0	0.2
O=C(O)[C@H]1CC[C@H](c2cc3cccnc3c(-c3cccc(F)c3)n2)CC1	96.3	98.9	101	92.2	90.1	112	95.1	91.1	95	107	101	99.3	96.3	99	86.3	104	98.4	96.9	96.5	99.6	102	103	108	98	109	> 10	> 10	> 10	> 10	> 10	0	0	0.2	0	0
